Values after ≈ are worked out from the molar mass of the structure shown. Each block holds one compound with its values, some of them ahead of it. Active and inactive are the calls of the source.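 How the source made its calls: active means compounds whose lowest dose cutting E. coli growth over twofold at 37 C is below a set limit; inactive means the rest.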
Tested on: E. coli growth, OD530, overnight, 37 C
Assay: antibacterial MIC against E. coli – 37 and 42 C, DnaK modulator project, SAR follow-up (AID 1503)
[1] = measured here: E. coli MIC at 42 C

MIC: > 4000 µM (inactive)
SMILES: Cc1ccc(C(=O)NCc2ccc(F)cc2)o1

MIC: > 4000 µM (inactive)
SMILES: O=C(NCc1ccccc1F)c1cccs1

MIC: > 10000 µM (inactive) | MIC [1]: > 10000 µM
SMILES: CC(Cc1ccc(F)cc1)NC(=O)c1cccs1 (configuration not stated)

Further lines, the compound ahead of its results:

SMILES: O=C(Nc1ccc2[nH]ccc2c1)c1cccs1
MIC: 400 µM (≈ 96.9 µg/mL) | MIC [1]: 400 µM (≈ 96.9 µg/mL)

SMILES: Cc1ccc(C(=O)NCc2ccc(Cl)cc2)o1
MIC: > 4000 µM (inactive)

SMILES: Nc1ccc2c(ccn2C(=O)c2cccs2)c1
MIC: < 4000 µM (inactive) | MIC [1]: > 4000 µM

SMILES: Cc1ccc(CNC(=O)c2ccc([N+](=O)[O-])o2)cc1
MIC: 250 µM (≈ 65.1 µg/mL) | MIC [1]: 250 µM (≈ 65.1 µg/mL)

SMILES: O=C(NCc1ccccc1Br)c1cccs1
MIC: > 4000 µM (inactive)
